Where two headings read alike, the source gives them in different places.
Experiments:
[1] = biological target: T1, Plk1-Flag-His6 tag fusion enzyme (Human Plk1) (Homo sapiens, UniProt P53350); assay: Plk1 Inhibition Assay; assay type: biochemical; details: 5.0 μM ATP, GST-Cdc25c (1-206) substrate, 60 min room temperature; MSR 3.6; read-out: Plk1 IC50 (absolute IC50)
T1 construct: made in house; host or cells: Sf9 cells (baculovirus, pFastBac vector)
Excerpt: Human Plk1 cDNA, which may be obtained from a number of sources, such as Incyte (accession number: NM_005030), may be directly linked at one of its termini with a polynucleotide sequence expressing a His6 tag, such as the C-terminal FLAG-His6 tag, and inserted into an appropriate expression vector, such as a pFastBac™ vector (Invitrogen) and transfected into an appropriate system, such as baculovirus similar to what has been reported by Yue-Wei Qian, et al., Science 282, 1701 (1998) for xPlkk1. If a viral expression system is used, then the virus (e.g., baculovirus bearing a Plk1-Flag-His6 tag polynucleotide construct) is infected into a culture of a suitable host cell, such as Sf9 cells. […]
Plk1 kinase reactions contain Plk1-Flag-His6 tag fusion enzyme (0.2 ng/μL) in a buffer containing 50 mM HEPES, pH 7.3, 1.0 mM dithiothreitol, 5.0 μM ATP, 10 mM MgCl2, 0.01% TRITON® X-100, 0.4 μCi ^33P-ATP, and 0.06 μg/μL GST-Cdc25c (1-206) peptide. […] Wells are dried before addition of 40 μL of MicroScint™20 (Packard) and then counted on a Wallac MICROBETA® Jet. The percentage inhibition values from the 10-point concentration response data are subsequently analyzed, for example, using ACTIVITY BASE™ software (IDBS), using a 4-parameter logistic equation. Absolute IC50 values are calculated from the resulting curve fit.

HeLa Cells = assay: pHH3(S10), Mitotic Cells, and DNA Content Assays; assay type: cell-based; details: Homo sapiens, 23 hours exposure
Description: HeLa Cells from the American Type Culture Collection (ATCC) are plated at 200 cells/well in 96 well […] BIOCOAT™ plates, and are incubated in MEM (Minimum Essential Medium, e.g., GIBCO, catalog #11095) with 10% FBS (Fetal Bovine Serum) in 37° C., 5% CO2 for 24 hours. Cells are treated by adding compound (in 0.25% DMSO) to the medium, dosing at 10 points across the range 0.5 μM to 0.0098 μM. After 23 hours exposure to the compounds, cells are fixed, for example with the PREFER™ fixative [Anatech LTD., Catalog #414] for 30 min then are permeabilized with 0.1% TRITON® X100 in phosphate buffered saline (PBS) solution for 15 min. Cells are washed 3 times with PBS then digested with 50 μg/mL RNAse. Primary antibody, phosphohistone H3 (Upstate Cat#06-570), is added at 1:500 in PBS with 1% bovine serum albumin (BSA) to the cells over night at 4° C. After 3 PBS washes, cells are incubated with Alexa488 labeled secondary antibody (Invitrogen cat #A11008) for 1 hour at room temperature. Again they are washed 3 times with PBS, and then 15 μM propidium iodide (Molecular Probes cat #P3566) is added for 30 min to stain nuclei. Fluorescence Plates are scanned with ACUMEN EXPLORER™ [Laser-scanning fluorescence microplate cytometer (comprising of 488 nm argon ion laser excitation and multiple photomultiplier tube detection), manufactured by TTP LABTECH LTD] to measure phosphohistone H3, DNA content and mitotic cells as measured by DNA condensation. Image analyses are based on cellular fluorescent signals for identifying cells in different subpopulations. pHH3(S10) positive cells are identified by mean intensity at 500-530 nm above the threshold. Total intensity at 655-705 nm from propidium iodide/DNA is used to identify individual cells (cells with DNA content from 2N to 4N) and subpopulations in cell cycle (2N cells, 4N cells). Peak intensity at 575-640 nm is used to identify DNA condensation that is used as the marker to identify mitotic cells among 4N cells. […] The EC50 is determined by curve fitting to a four parameter logistic for each output using ACTIVITY BASE™. […]

HCT116 cells = assay: Antiproliferative Assay; assay type: cell-based; details: Homo sapiens, HCT-116, e.g. 72 hours exposure, Alamar Blue, n=3, MSR 3.1
Description: The effects of compounds on cell proliferation can be determined using cells and cell proliferation methods well-known in the art (Robert C. Squatrito et al., Gynecological Oncology, 58, 101-105, (1995)). For example, HCT116 cells, which may be obtained from the American Type Culture Collection, may be seeded at 2000 cells/well in 96-well plates and allowed to attach overnight in a humidified CO2 incubator at 37° C. Following the 20-24 hour incubation, half-log serially diluted compounds are added and the plates are returned to the incubator. After an appropriate length of exposure (e.g., 72 hours), cell proliferation is estimated using well-known methods. In one method, 10 μL of a tetrazolium salt, such as Alamar Blue™ is added to the cell plates. After an appropriate exposure to the dye, fluorescence (530 nm excitation, 580 nm emission) is determined. The resulting IC50 has an MSR of 3.1.

[2] = in man, cited from earlier work
[3] = test system: HCT116, A549 and NCIH460 murine xenografts; details: cited from earlier work

T1 sequence (P53350 whole entry, the tested form may be a part): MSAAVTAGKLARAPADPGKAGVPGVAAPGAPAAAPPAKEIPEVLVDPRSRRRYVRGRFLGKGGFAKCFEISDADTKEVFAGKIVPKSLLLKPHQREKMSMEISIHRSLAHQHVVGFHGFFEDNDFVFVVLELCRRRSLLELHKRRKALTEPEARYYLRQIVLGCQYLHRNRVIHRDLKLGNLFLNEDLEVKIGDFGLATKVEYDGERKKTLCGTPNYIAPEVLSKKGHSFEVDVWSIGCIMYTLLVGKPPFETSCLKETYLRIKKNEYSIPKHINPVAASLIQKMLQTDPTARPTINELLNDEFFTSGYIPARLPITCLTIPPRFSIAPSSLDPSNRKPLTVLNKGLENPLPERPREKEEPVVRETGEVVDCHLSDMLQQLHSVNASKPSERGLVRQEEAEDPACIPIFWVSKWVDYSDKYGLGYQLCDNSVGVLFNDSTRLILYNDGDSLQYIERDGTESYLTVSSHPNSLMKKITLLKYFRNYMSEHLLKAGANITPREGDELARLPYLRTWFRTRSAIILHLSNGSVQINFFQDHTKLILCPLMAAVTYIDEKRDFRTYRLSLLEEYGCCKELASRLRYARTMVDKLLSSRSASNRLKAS

IC50 [1] [nM] | EC50 (HeLa Cells; n=1, MSR 2.5, read-out: mitotic EC50) [nM] | EC50 (HeLa Cells; n=2, MSR 2.4, read-out: DNA content EC50) [nM] | EC50 (HeLa Cells; n=2, MSR 2.6, read-out: pHH3(s10) EC50) [nM] | IC50 (HCT116 cells) [nM] | SMILES | clearance (CL) ([2]; phase II clinical trials) [mL/min] | dose-limiting toxicity [2] | activity in preclinical xenograft models [3]
~23 | 45 | 40 | 42 | 11 | O=C1NCCN1CCNc1ncc(Cl)c(-c2cc3cccc(-c4cc(F)ncc4Cl)c3s2)n1 [Example 13, 1-(2-{5-Chloro-4-[7-(5-chloro-2-fluoropyridin-4-yl)-benzo[b]thiophen-2-yl]pyrimidin-2-ylamino}ethyl)imidazolidin-2-one] | – | – | –
– | – | – | – | – | CC[C@@H]1C(=O)N(C)c2cnc(Nc3ccc(C(=O)NC4CCN(C)CC4)cc3OC)nc2N1C1CCCC1 [BI-2536] | > 1000 | dose limited by myelosupression | demonstrated activity

Source: patent US8101628B2, “Imidazolidinonyl aminopyrimidine compounds for the treatment of cancer” (Eli Lilly and Company, priority 2007, dated 2012)
